Laboratory results: patent publication US9914730B2, “Azaquinazoline inhibitors of Atypical protein Kinase C” (Ignyta, Inc., priority 2012, dated 2018)

Target: T1, full-length human PKCι (Homo sapiens, UniProt P41743)
T1 construct: Recombinant, full-length human PKCι expressed in Sf21 insect cells is also commercially available; purchased; host or cells: Sf21 insect cells
T1 sequence (P41743 1-596): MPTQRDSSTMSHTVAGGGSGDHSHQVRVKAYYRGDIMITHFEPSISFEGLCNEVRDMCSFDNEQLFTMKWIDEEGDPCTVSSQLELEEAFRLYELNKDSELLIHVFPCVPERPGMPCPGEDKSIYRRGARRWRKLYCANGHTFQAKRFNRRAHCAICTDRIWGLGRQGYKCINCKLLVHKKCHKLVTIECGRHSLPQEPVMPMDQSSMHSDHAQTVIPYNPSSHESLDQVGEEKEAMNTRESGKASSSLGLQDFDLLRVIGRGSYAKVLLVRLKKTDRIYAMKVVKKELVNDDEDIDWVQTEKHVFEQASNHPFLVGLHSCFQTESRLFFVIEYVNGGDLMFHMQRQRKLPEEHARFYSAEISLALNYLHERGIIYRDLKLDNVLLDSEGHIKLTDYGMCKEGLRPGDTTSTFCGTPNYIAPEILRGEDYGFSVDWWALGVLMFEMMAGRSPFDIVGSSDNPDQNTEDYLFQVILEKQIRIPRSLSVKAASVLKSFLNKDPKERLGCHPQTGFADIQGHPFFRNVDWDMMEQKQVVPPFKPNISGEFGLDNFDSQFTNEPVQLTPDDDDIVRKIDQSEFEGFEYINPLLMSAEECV
Assay: PKCι IC50 IMAP assay, full-length PKCι at 150 μM ATP
Assay type: biochemical
Settings: read-out: IC50 in IMAP assay against full length PKCi at 150 μM ATP
In short: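 Phosphorylation of a 5FAM-tagged PKCε pseudopeptide-derived substrate (100 nM) by full-length recombinant human PKCι was monitored by IMAP fluorescence polarisation. ATP was held at 150 μM, five times its apparent KM, with 60 min room-temperature incubation.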

Compound | IC50
CNc1nc(-c2ccnc(Nc3cccc(C4CCNCC4)c3)c2)nc2cncc(OC)c12 [Example 502, {5-Methoxy-2-[2-(3-piperidin-4-yl-phenylamino)-pyridin-4-yl]-pyrido[3,4-d]pyrimidin-4-yl}-methyl-amine] | 1000 to 10000 nM
COc1cncc2nc(-c3ccnc(Nc4cccc(N5CCNCC5)c4)c3)ncc12 [Example 503, [4-(5-Methoxy-pyrido[3,4-d]pyrimidin-2-yl)-pyridin-2-yl]-(3-piperazin-1-yl-phenyl)-amine] | 1000 to 10000 nM
Cc1ccc(F)c(Nc2cc(-c3nc(N4CCNCC4)c4c(C5CC5)cncc4n3)ccn2)c1 [Example 504, [4-(5-Cyclopropyl-4-piperazin-1-yl-pyrido[3,4-d]pyrimidin-2-yl)-pyridin-2-yl]-(2-fluoro-5-methyl-phenyl)-amine] | < 100 nM
c1cnc(Nc2cc(-c3nc(N4CCNCC4)c4c(C5CC5)cncc4n3)ccn2)cn1 [Example 507] | < 100 nM
FC(F)(F)C1CN(c2nc(-c3ccnc(NC4CC4)c3)nc3cncc(C4CC4)c23)CCN1 (stereo not drawn) [Example 508, Cyclopropyl-{4-[5-cyclopropyl-4-(3-trifluoromethyl-piperazin-1-yl)-pyrido[3,4-d]pyrimidin-2-yl]-pyridin-2-yl}-amine] | < 100 nM
COc1ncccc1Nc1cc(-c2nc(N3CCNCC3)c3c(C4CC4)cncc3n2)ccn1 [Example 513, [4-(5-Cyclopropyl-4-piperazin-1-yl-pyrido[3,4-d]pyrimidin-2-yl)-pyridin-2-yl]-(2-methoxy-pyridin-3-yl)-amine] | < 100 nM
COc1ccccc1Nc1cc(-c2nc(N3CCNCC3)c3c(C4CC4)cncc3n2)ccn1 [Example 515, [4-(5-Cyclopropyl-4-piperazin-1-yl-pyrido[3,4-d]pyrimidin-2-yl)-pyridin-2-yl]-(2-methoxy-phenyl)-amine] | < 100 nM
FC(F)(F)c1ccccc1Nc1cc(-c2nc(N3CCNCC3)c3c(C4CC4)cncc3n2)ccn1 [Example 516, [4-(5-Cyclopropyl-4-piperazin-1-yl-pyrido[3,4-d]pyrimidin-2-yl)-pyridin-2-yl]-(2-trifluoromethyl-phenyl)-amine] | < 100 nM
CC(C)(C)Nc1cc(-c2nc(N3CCNCC3)c3c(C4CC4)cncc3n2)ccn1 [Example 520, tert-Butyl-[4-(5-cyclopropyl-4-piperazin-1-yl-pyrido[3,4-d]pyrimidin-2-yl)-pyridin-2-yl]-amine] | < 100 nM
Fc1ccc(F)c(Nc2cc(-c3nc(N4CCNCC4)c4c(C5CC5)cncc4n3)ccn2)c1 [Example 521, [4-(5-Cyclopropyl-4-piperazin-1-yl-pyrido[3,4-d]pyrimidin-2-yl)-pyridin-2-yl]-(2,5-difluoro-phenyl)-amine] | < 100 nM
Fc1ccc(C(F)(F)F)cc1Nc1cc(-c2nc(N3CCNCC3)c3c(C4CC4)cncc3n2)ccn1 [Example 522, [4-(5-Cyclopropyl-4-piperazin-1-yl-pyrido[3,4-d]pyrimidin-2-yl)-pyridin-2-yl]-(2-fluoro-5-trifluoromethyl-phenyl)-amine] | 100 to 1000 nM
Cc1ccc(C#N)cc1Nc1cc(-c2nc(N3CCNCC3)c3c(C4CC4)cncc3n2)ccn1 [Example 524, 3-[4-(5-Cyclopropyl-4-piperazin-1-yl-pyrido[3,4-d]pyrimidin-2-yl)-pyridin-2-ylamino]-4-methyl-benzonitrile] | < 100 nM
O=C1OCC2CN(c3nc(-c4ccnc(Nc5ccccc5)c4)nc4cncc(C5CC5)c34)CCN12 (stereo not drawn) [Example 525, 7-[5-Cyclopropyl-2-(2-phenylamino-pyridin-4-yl)-pyrido[3,4-d]pyrimidin-4-yl]-hexahydro-oxazolo[3,4-a]pyrazin-3-one] | 100 to 1000 nM
Cc1cccc(Cl)c1Nc1cc(-c2nc(N3CCNCC3)c3c(C4CC4)cncc3n2)ccn1 [Example 527, (2-Chloro-6-methyl-phenyl)-[4-(5-cyclopropyl-4-piperazin-1-yl-pyrido[3,4-d]pyrimidin-2-yl)-pyridin-2-yl]-amine] | < 100 nM
N#Cc1ccc(F)c(Nc2cc(-c3nc(N4CCNCC4)c4c(C5CC5)cncc4n3)ccn2)c1 [Example 528, 3-[4-(5-Cyclopropyl-4-piperazin-1-yl-pyrido[3,4-d]pyrimidin-2-yl)-pyridin-2-ylamino]-4-fluoro-benzonitrile] | 100 to 1000 nM
CC(C)(C)c1ccc(Nc2cc(-c3nc(N4CCNCC4)c4c(C5CC5)cncc4n3)ccn2)c(Cl)c1 [Example 529, (4-tert-Butyl-2-chloro-phenyl)-[4-(5-cyclopropyl-4-piperazin-1-yl-pyrido[3,4-d]pyrimidin-2-yl)-pyridin-2-yl]-amine] | < 100 nM
N#Cc1ccnc(Nc2cc(-c3nc(N4CCN[C@@H](CF)C4)c4c(C5CC5)cncc4n3)ccn2)c1 [Example 530, 2-{4-[5-Cyclopropyl-4-((R)-3-fluoromethyl-piperazin-1-yl)-pyrido[3,4-d]-pyrimidin-2-yl]-pyridin-2-ylamino}-iso-nicotinonitrile] | < 100 nM
FC(F)(F)CNc1cc(-c2nc(N3CCNCC3)c3c(C4CC4)cncc3n2)ccn1 [Example 532, [4-(5-Cyclopropyl-4-piperazin-1-yl-pyrido[3,4-d]pyrimidin-2-yl)-pyridin-2-yl]-(2,2,2-trifluoro-ethyl)-amine] | < 100 nM

Next, values leading:

IC50 | Compound
< 100 nM | Cc1ccc(C)c(Nc2cc(-c3nc(N4CCNCC4)c4c(C5CC5)cncc4n3)ccn2)c1 [Example 505, [4-(5-Cyclopropyl-4-piperazin-1-yl-pyrido[3,4-d]pyrimidin-2-yl)-pyridin-2-yl]-(2,5-dimethyl-phenyl)-amine]
100 to 1000 nM | N#Cc1ccc(Nc2cc(-c3nc(N4CCNCC4)c4c(C5CC5)cncc4n3)ccn2)cn1 [Example 506, 5-[4-(5-Cyclopropyl-4-piperazin-1-yl-pyrido[3,4-d]pyrimidin-2-yl)-pyridin-2-ylamino]-pyridine-2-carbonitrile]
< 100 nM | c1cc(-c2nc(N3CCNCC3)c3c(C4CC4)cncc3n2)cc(N[C@@H]2CCOC2)n1 [Example 509, [4-(5-Cyclopropyl-4-piperazin-1-yl-pyrido[3,4-d]pyrimidin-2-yl)-pyridin-2-yl]-(R)-tetrahydro-furan-3-yl-amine]
< 100 nM | FC1(F)CCC(Nc2cc(-c3nc(N4CCNCC4)c4c(C5CC5)cncc4n3)ccn2)CC1 [Example 510, [4-(5-Cyclopropyl-4-piperazin-1-yl-pyrido[3,4-d]pyrimidin-2-yl)-pyridin-2-yl]-(4,4-difluoro-cyclohexyl)-amine]
100 to 1000 nM | FC[C@H]1CN(c2nc(-c3ccnc(Nc4cc(C(F)(F)F)ccn4)c3)nc3cncc(C4CC4)c23)CCN1 [Example 511, {4-[5-Cyclopropyl-4-((R)-3-fluoromethyl-piperazin-1-yl)-pyrido[3,4-d]pyrimidin-2-yl]-pyridin-2-yl}-(4-trifluoromethyl-pyridin-2-yl)-amine]
< 100 nM | Clc1cccc(Nc2cc(-c3nc(N4CCNCC4)c4c(C5CC5)cncc4n3)ccn2)n1 [Example 514, (6-Chloro-pyridin-2-yl)-[4-(5-cyclopropyl-4-piperazin-1-yl-pyrido[3,4-d]pyrimidin-2-yl)-pyridin-2-yl]-amine]
100 to 1000 nM | COCc1ccccc1Nc1cc(-c2nc(N3CCNCC3)c3c(C4CC4)cncc3n2)ccn1 [Example 517, [4-(5-Cyclopropyl-4-piperazin-1-yl-pyrido[3,4-d]pyrimidin-2-yl)-pyridin-2-yl]-(2-methoxymethyl-phenyl)-amine]
< 100 nM | c1cc(-c2nc(N3CCNCC3)c3c(C4CC4)cncc3n2)cc(N[C@H]2CCOC2)n1 [Example 518, [4-(5-Cyclopropyl-4-piperazin-1-yl-pyrido[3,4-d]pyrimidin-2-yl)-pyridin-2-yl]-(S)-tetrahydro-furan-3-yl-amine]
100 to 1000 nM | N#Cc1ccccc1Nc1cc(-c2nc(N3CCNCC3)c3c(C4CC4)cncc3n2)ccn1 [Example 519, 2-[4-(5-Cyclopropyl-4-piperazin-1-yl-pyrido[3,4-d]pyrimidin-2-yl)-pyridin-2-ylamino]-benzonitrile]
< 100 nM | Cc1ccc(F)cc1Nc1cc(-c2nc(N3CCNCC3)c3c(C4CC4)cncc3n2)ccn1 [Example 523, [4-(5-Cyclopropyl-4-piperazin-1-yl-pyrido[3,4-d]pyrimidin-2-yl)-pyridin-2-yl]-(5-fluoro-2-methyl-phenyl)-amine]
< 100 nM | Fc1cccnc1Nc1cc(-c2nc(N3CCNCC3)c3c(C4CC4)cncc3n2)ccn1 [Example 526, [4-(5-Cyclopropyl-4-piperazin-1-yl-pyrido[3,4-d]pyrimidin-2-yl)-pyridin-2-yl]-(3-fluoro-pyridin-2-yl)-amine]
< 100 nM | FC[C@H]1CN(c2nc(-c3ccnc(Nc4cccnc4F)c3)nc3cncc(C4CC4)c23)CCN1 [Example 531, {4-[5-Cyclopropyl-4-((R)-3-fluoromethyl-piperazin-1-yl)-pyrido[3,4-d]-pyrimidin-2-yl]-pyridin-2-yl}-(2-fluoro-pyridin-3-yl)-amine]
